Results: publication PMC2360244 (British Journal of Cancer, 2007)

Legend:
[1] = tested on: A2780 ovarian carcinoma xenograft; experiment: A2780 ovarian xenograft, tumour growth; format: in vivo, mice; details: median tumour size at end of study
Experimental: (§1) All mice used in the in vivo studies were athymic male NMRI nu/nu mice purchased from Janvier (France) and were treated according to the ethical guidelines prescribed by UKCCCR. A2780 ovarian, HCT116 colon and H460 lung carcinoma cells were injected s.c. (10^7 cells per 200 μl) into the inguinal region of Nude mice. […] Tumour size was determined using caliper measurement and tumour volume was determined by using the formula: TV=(a^2 × b)/2 (in which a represents the width and b the length).
(§2) Mice were treated orally once daily (q.d.) between day 4 and 28 (A2780) or between day 4 and 32 (H460 and HCT116). (A) A2780 ovarian tumours were measured at least twice a week throughout the study, and results are represented as the median tumour size, expressed in mm^3, of each individual group (n=10). (B) Mice were treated orally q.d. at the indicated doses. Results are represented as the treated/control values (%) of the median tumour size (n=10) at the end of the study.

[2] = tested on: ALL, AML, CLL, CML, lymphoma and myeloma tumour cells; experiment: cells; details: Homo sapiens, read-out: IC50 values, proliferation of haematological tumour cells (range over panel)
Experimental: The effect of HDAC inhibitors on cell proliferation was measured using an MTT (3-(4,5-dimethyl-2-thiazolyl)-2,5-diphenyl-2H-tetrazolium bromide)-based assay (Serva, Heidelberg, Germany). Cells were seeded in Falcon or NUNC 96-well culture plates (Life Technologies, Merelbeke, Belgium) in 100 μl culture medium and allowed to adhere to plastic for 18–48 h. Test compounds were dissolved in DMSO and further dilutions were made in culture medium, with final concentrations of DMSO never exceeding 0.1% (v v^−1), and incubated for 4 days. Proliferation of NSCLC was assessed using Alamar Blue-based assay. Cells were seeded in COSTAR 384-well culture plates in 45 μl culture medium and allowed to adhere to plastic for 24 h. Alamar blue was added after 72 h, with the exception of HCC-15, HCC-44, NCI-H2122 and NCI-H460, where Alamar blue was added after 90 h and OD values were measured at 4 days following compound exposure. Data are presented as mean±s.d. of three independent experiments.

[3] = tested on: A2780 ovarian carcinoma cells; experiment: A2780 tumour cell proliferation, MTT colorimetric assay; format: cell-based, human; details: Homo sapiens, A2780, 96 h, 4 days, mean±s.d.
Experimental: Control cells were treated with the combined respective vehicle.

[4] = tested on: HCT116 colon carcinoma xenograft; experiment: HCT116 colon xenograft, tumour growth; format: in vivo, mice; details: median tumour size at end of study
Experimental: as §1, §2

[5] = tested on: A2780 ovarian carcinoma cells; experiment: Cell-cycle analysis, propidium iodide staining and FACS; format: cell-based, human
Experimental: Human A2780 ovarian carcinoma cells were seeded at 2 × 10^6 cells per 75-cm^2 flask and, after 24 h, incubated with the indicated concentration of test compound. To analyse cell-cycle distribution, sub-confluent cells were collected, centrifuged and washed with PBS. The cell pellets were re-suspended in citrate buffer and nuclei were stained with propidium iodide (Sigma-Aldrich, Bornem, Belgium) as described previously ([Vindelov et al, 1983]). Analysis was carried out using a BD-LSR flow cytometer (BD Biosciences, Erembodegem, Belgium) equipped with an argon laser (488 nm excitation). Cell-cycle profiles were analysed using WinList 3D version 4.0 and areas under the curve were calculated using ModFit LT version 3.1 (Verity Software House Inc.).
DNA content of nuclei was evaluated using propidium iodide staining followed by FACS analysis, and the number of cells in sub-G1, G1, S and G2M phase was calculated as a percentage of control. Results are expressed as % of total cells and a representative experiment out of three is shown.

[6] = tested on: H3 acetylation and p21waf1,cip1 in A2780 ovarian carcinoma cells; experiment: Western blot of acetylated H3 and p21waf1,cip1 in A2780 cells (class I HDAC readout); format: cell-based, human
Experimental: Human A2780 ovarian carcinoma cells were incubated with the indicated concentrations of HDAC inhibitors. Total cell lysates were prepared and analysed by SDS–PAGE. […] To control for equal loading, blots were stripped and re-probed with mouse monoclonal antiactin IgM (Ab-1, Oncogene Research products, Merck, Darmstadt, Germany). […] Protein–antibody complexes were then visualised by chemiluminescence (Pierce Chemical Co., Perbioscience, Erembodegem, Belgium) or fluorescence (Odyssey) according to manufacturer's instructions.
Total cell lysates were prepared and analysed by SDS–PAGE. Levels of acetylated H3 and tubulin, and of total levels of H3 and tubulin and of p21^waf1, cip1 and Hsp70 and c-raf protein, were detected using rabbit polyclonal and mouse monoclonal antibodies, followed by ECL detection as indicated in the Methods section. To control for equal loading, blots were stripped and re-probed with antibodies against actin and the nuclear protein Lamin B1. A representative experiment out of three is shown.

[7] = tested on: A2780 ovarian carcinoma cells; experiment: Annexin V staining (apoptosis), FACS; format: cell-based, human; details: 48 h, concentration-dependent
Experimental: Human A2780 ovarian carcinoma cells were seeded at 2 × 10^6 cells per 75-cm^2 flask and, after 24 h, incubated with the indicated concentration of test compound for 48 h. The cells were subsequently collected, centrifuged and washed with PBS. The cell pellets were stained with Annexin-V-FITC antibody and propidium iodide with a kit from PharMingen, BD Biosciences, Erembodegem, Belgium (cat 66121E).
Cells were stained with Annexin V (Pharmingen) and propidium iodide, and analysed by FACS. […] Membrane-damaged cells were defined as both Annexin V- and propidium iodide-positive. Shown are mean values±variation for two independent experiments. […] Green asterisks represent mitotic cells, while red arrows point at specific DNA fragmentation. (B) Rat Aortic Ring Assays were performed as described in the Methods section.

[8] = tested on: H460 lung carcinoma xenograft; experiment: H460 lung xenograft, tumour growth; format: in vivo, mice; details: median tumour size at end of study
Experimental: as §1, §2

O=C(NO)c1cnc(N2CCN(S(=O)(=O)c3ccc4ccccc4c3)CC2)nc1 [R306465]
T/C values (%) A2780 ovarian ([1]; 10 mpk p.o. q.d. day 4 to 28): 47%
T/C values (%) A2780 ovarian ([1]; 20 mpk p.o. q.d. day 4 to 28): 13%
T/C values (%) A2780 ovarian ([1]; 40 mpk p.o. q.d. day 4 to 28): 24%
IC50 [2]: 15 to 486 nM
IC50 [3]: 39 ± 17 nM
T/C values (%) HCT116 colon ([4]; 10 mpk p.o. q.d. day 4 to 32): 76%
T/C values (%) HCT116 colon ([4]; 20 mpk p.o. q.d. day 4 to 32): 75%
T/C values (%) HCT116 colon ([4]; 30 mpk p.o. q.d. day 4 to 32): 57%
T/C values (%) HCT116 colon ([4]; 40 mpk p.o. q.d. day 4 to 32): 34%
G0–G1, % of total cells ([5]; 0.1 μM, 24 h): 44.6%
G2–M, % of total cells ([5]; 0.1 μM, 24 h): 28.3%
S-phase, % of total cells ([5]; 0.1 μM, 24 h): 27.1%
G0–G1, % of total cells ([5]; 0.1 μM, 48 h): 64.4%
G2–M, % of total cells ([5]; 0.1 μM, 48 h): 17.0%
S-phase, % of total cells ([5]; 0.1 μM, 48 h): 18.6%
G0–G1, % of total cells ([5]; 0.3 μM, 24 h): 76.5%
G2–M, % of total cells ([5]; 0.3 μM, 24 h): 7.8%
S-phase, % of total cells ([5]; 0.3 μM, 24 h): 15.7%
G0–G1, % of total cells ([5]; 0.3 μM, 48 h): 67.2%
G2–M, % of total cells ([5]; 0.3 μM, 48 h): 14.9%
S-phase, % of total cells ([5]; 0.3 μM, 48 h): 17.9%
G0–G1, % of total cells ([5]; 1 μM, 24 h): 55.4%
G2–M, % of total cells ([5]; 1 μM, 24 h): 39.2%
S-phase, % of total cells ([5]; 1 μM, 24 h): 5.4%
G0–G1, % of total cells ([5]; 1 μM, 48 h): 45.5%
G2–M, % of total cells ([5]; 1 μM, 48 h): 44.5%
S-phase, % of total cells ([5]; 1 μM, 48 h): 10.0%
concentration at which decrease in S phase with parallel increase in G1 phase was observed ([5]; 24 h incubation): 300 nM
concentration at which increase in the sub-G1 fraction was observed ([5]; 24 h incubation): 1 µM
concentration from which increase in sub-G1 phase was observed ([5]; 48 h incubation): ≥ 100 nM
concentration at which H3 acetylation is induced ([6]; 24 h, western blot): 100 nM
concentration at which p21waf1,cip1 is induced ([6]; 24 h, western blot): 100 nM
cellular potency for HDAC1 vs HDAC6 (higher for HDAC1) ([6]; H3 acetylation vs tubulin acetylation): 10 fold
percentage of cells positive for Annexin V [7]: significant increase
T/C values (%) H460 lung ([8]; 10 mpk p.o. q.d. day 4 to 32): 56%
T/C values (%) H460 lung ([8]; 20 mpk p.o. q.d. day 4 to 32): 64%
T/C values (%) H460 lung ([8]; 40 mpk p.o. q.d. day 4 to 32): 31%
